# Like-named read-outs stand apart in the source and are kept apart here.
# Key:
# PD-1 = experiment: PD-1, CD8 and CD25 expression on T cells by imaging flow cytometry; assay type: cell-based, human
# Experimental: PBMCs were allowed to ‘recover’ in AIM-V medium (Thermo Fisher Scientific) at 37 °C, 5% CO2 in a humidified atmosphere overnight. 2 × 10^6 cells were treated with 0–10 µM sorafenib for the durations specified in the results section. If the experimental conditions required T cell stimulation, samples were co-treated (stimulated) with 1 µg/mL anti-CD3 and 1 µg/mL anti-CD28 for 2 h. Following treatment, PBMCs were placed on ice to stop drug action and immunophenotyped for CD4, CD8, CD25, and PD-1 (CD279). NFAT1 was detected by indirect labeling. Antibodies were diluted in permeabilization wash buffer (PWB) consisting of 0.1% Triton-X-100 in FCM Buffer (1× phosphate buffered saline (PBS) + 0.5%BSA). The primary Rabbit polyclonal NFAT1 antibody was diluted 1:50 in PWB. Following this, 1:200 dilution of secondary AF647 conjugated F(ab’)2 fragment donkey anti rabbit IgG antibody (Jackson ImmunoResearch Laboratories Inc., West Grove, PA, USA) was added. Just prior to data acquisition on the ImageStream, DAPI was added to all samples (0.5 µg/mL final concentration), to stain the nucleus.
# Imaging flow cytometry acquisition, compensation, and analysis was performed on an imaging flow cytometer (ImagestreamX Mk-II; Amnis, part of MilliporeSigma, Seattle, WA, USA) as described previously. Following compensation for spectral overlap, image analysis was performed with IDEAS® software (Amnis, Seattle, WA, USA). To assess nuclear NFAT1 translocation, the corresponding nuclear image and NFAT1 image of each cell was compared and a Similarity Score (SS) was assigned for individual cells using published methods (Figure S3).
# human T cells = experiment: One-way mixed lymphocyte reaction (MLR), human T cells, CFSE; assay type: cell-based; conditions: high dose (10 µM), 96 h
# Experimental: Flow cytometry acquisition and compensation was performed on a LSR Fortessa (BD Biosciences, San Jose, CA, USA). Analysis of listmode data was performed using Winlist 8.0 (Verity Software House, Inc., Topsham, ME, USA). Briefly, the viable responder lymphocytes were hierarchically gated for single, low side scatter, viable cells with absent CD45 labeling. The percentage of proliferating cells was determined based on CFSE dye dilution compared to the CFSE labeling intensity from the non-proliferating MLR negative control sample. The full list of antibodies and reagents used in assays is available in Table S1.
# Mixed lymphocyte reactions were performed in human (human vs. human, Figure 1E) and woodchucks (woodchuck vs. human, Figure 1F). 10 mL peripheral blood from healthy donors and 3 mL woodchuck peripheral blood isolated. Stimulator cells (human cells for both assays) were irradiated at 40 Gy in a Mark I Cesium-137 irradiator for 20 min. Following irradiation, cells were stained for CD45-APC (BD Biosciences, San Jose, CA, USA). Responder cells (non-irradiated human or woodchuck cells) were labeled with CFSE (Thermo Fisher Scientific, Eugene, OR, USA). Target and responder cells were placed in a round bottom 96 well polypropylene plate at a 2:1 ratio in the presence of 0–10 µM sorafenib and incubated at 37 °C for 96 h. […]
# [1] = Plasma pharmacokinetics of oral sorafenib in woodchucks (LC-MS/MS, noncompartmental analysis); assay type: in vivo, woodchuck (Marmota monax); conditions: for AUC / Cmax / Tmax: plasma, po; for AUC / Cmax / Tmax / Cmax/D, Geo Mean (%CV): woodchuck plasma; for Cmax: read-out: Cmax, Geo Mean (%CV); for Tmax: read-out: Tmax, Geo Mean (%CV)
# Experimental: Woodchuck plasma study samples were analyzed for sorafenib with an LC-MS/MS assay using authentic standards of sorafenib and the internal standard (IS), d3-sorafenib, both obtained from Toronto Research Chemicals (Toronto, ON, Canada). Study samples were quantitated using calibration and quality control (QC) samples prepared by spiking sorafenib into sodium heparinized human plasma (Bioreclamation, LLC, Westbury, NY, USA). The woodchuck plasma study samples were extracted using a Quadra 4 SPE Automated Liquid Handling System (Tomtec Inc., Hamden, CT, USA) by mixing a 50 µL aliquot of a calibrator, QC, plasma blank, or study sample with 500 µL of ice cold acetonitrile containing the IS for the LC-MS/MS. LC-MS/MS analysis was performed using a Finnigan Surveyor MS Pump Plus and Thermo Pal Autosampler System interfaced with a TSQ Quantum Ultra Mass Spectrometer, all obtained from Thermo Fisher Scientific (Waltham, MA, USA). A noncompartmental pharmacokinetic analysis (NCA) was performed on individual concentration-time data using a linear trapezoidal, linear/log interpolation calculation method with uniform weighting. The software program utilized for this analysis was Phoenix 64 WinNonlin Version 6.3 (Pharsight Corp., St. Louis, MO, USA). Study sample (n = 9) concentrations that were above the lower limit of quantitation (LLOQ) of the assay (62.5 ng/mL) following dose administration (Day 1: pre-dose and 1, 3, 5, 7 and 24 h; Day 19: pre-dose and 1, 3, 5, and 7 h) were used in the NCA.
# All WHV carrier woodchucks were randomly divided into three groups such as placebo, low dose (2.5 mg/kg/day), and high dose (5.0 mg/kg/day) groups (n = 5 animals/group) in a long-term efficacy study based on clinical and preclinical studies. Also, a compartmental pharmacokinetic (PK) model was used to select the two lowest doses that can achieve exposure sufficient to inhibit pharmacodynamic targets. Experimental woodchucks were treated with placebo, 2.5 mg/kg, or 5.0 mg/kg sorafenib once daily with a 5 days on and 2 days off schedule. Animals were dosed orally until tumor development. Another experiment was performed with the low (2.5 mg/kg/day) and high (5.0 mg/kg/day) dose groups (n = 3 animals/group) to see the efficacy of short-term (90 days treatment) usage of sorafenib. The primary endpoint of the in vivo study was disease free survival (DFS), and DFS was measured from the date of randomization until the date of any liver tumor detection. The secondary endpoint was tumor size over 2 cm, which was measured from the date of first tumor detection. All experimental protocols were approved by IACUC.
# [2] = 2.5 mg/kg, oral 2.5 mg/kg, Day 1
# [3] = 2.5 mg/kg, oral 2.5 mg/kg, Day 19
# [4] = 5 mg/kg, oral 5.0 mg/kg, Day 19
smiles,measurement,setting,value
"CNC(=O)c1cc(Oc2ccc(NC(=O)Nc3ccc(Cl)c(C(F)(F)F)c3)cc2)ccn1 [sorafenib, Sorafenib]",proportion of CD4+CD25bright T cells,"PD-1; dose-dependent manner, % of total CD4+ cells",decrease
same,CD8 expression in PD-1+ cells,"PD-1; high dose (10 µM), PD-1+ T cells",decreased
same,NFAT1 activation and decreased expression of CD8 in PD-1 negative T cells,"PD-1; high dose (10 µM), PD-1 negative T cells",not observed
same,proportion of PD-1-expressing CD8+ and CD4+ T cells,"PD-1; high dose (10 µM), without exogenous stimulatory factors",increased
same,MLR response (T cell proliferation),human T cells,significant decrease
same,Cmax/D of high dose group relative to low dose group,"[1]; 5.0 vs 2.5 mg/kg, Day 1",~ 8 times
same,Cmax/D of high dose group compared with low dose group,"[1]; 5.0 vs 2.5 mg/kg, Day 19",the same
same,AUC,"[1]; 2.5 mg/kg, oral 2.5 mg/kg, Day 1, read-out: AUC1–7 h, Geo Mean (%CV)",588 ng·h/mL
same,AUC,"[1]; 2.5 mg/kg, oral 2.5 mg/kg, Day 1, read-out: AUCAll, Geo Mean (%CV)",2600 ng·h/mL
same,Cmax,[1]; [2],136 ng/mL
same,Tmax,[1]; [2],5.92 h
same,AUC,"[1]; 2.5 mg/kg, oral 2.5 mg/kg, Day 19, read-out: AUC1–7 h, Geo Mean (%CV)",26800 ng·h/mL
same,AUC,"[1]; 2.5 mg/kg, oral 2.5 mg/kg, Day 19, read-out: AUCAll, Geo Mean (%CV)",30300 ng·h/mL
same,Cmax,[1]; [3],4970 ng/mL
same,Tmax,[1]; [3],4.22 h
same,AUC,"[1]; 5 mg/kg, oral 5.0 mg/kg, Day 1, read-out: AUC1–7 h, Geo Mean (%CV)",5960 ng·h/mL
same,AUC,"[1]; 5 mg/kg, oral 5.0 mg/kg, Day 1, read-out: AUCAll, Geo Mean (%CV)",21000 ng·h/mL
same,Cmax,"[1]; 5 mg/kg, oral 5.0 mg/kg, Day 1",1170 ng/mL
same,Tmax,"[1]; 5 mg/kg, oral 5.0 mg/kg, Day 1",3.98 h
same,AUC,"[1]; 5 mg/kg, oral 5.0 mg/kg, Day 19, read-out: AUC1–7 h, Geo Mean (%CV)",39100 ng·h/mL
same,Cmax,[1]; [4],7380 ng/mL
same,Tmax,[1]; [4],3.98 h
same,"Cmax/D, Geo Mean (%CV)","[1]; oral 2.5 mg/kg, Day 1","2, 54.4 (3.41) (ng/mL)/(mg/kg)"
same,"Cmax/D, Geo Mean (%CV)","[1]; oral 2.5 mg/kg, Day 19","3, 1990 (19.8) (ng/mL)/(mg/kg)"
same,"Cmax/D, Geo Mean (%CV)","[1]; oral 5.0 mg/kg, Day 1","3, 433 (75.8) (ng/mL)/(mg/kg)"
same,"Cmax/D, Geo Mean (%CV)","[1]; oral 5.0 mg/kg, Day 19","3, 2000 (54.5) (ng/mL)/(mg/kg)"

# Reference: article PMC6562672, “Dose-Dependent Sorafenib-Induced Immunosuppression Is Associated with Aberrant NFAT Activation and Expression of PD-1 in T Cells” (Cancers, 2019)
